Test results reported in publication PMC6669961, “Design and Optimization of Thioglycosyl–naphthalimides as Efficient Inhibitors Against Human O-GlcNAcase” (Frontiers in Chemistry, 2019).
Where two headings read alike, the source gives them in different places. Each block holds one molecule with its values, some of them ahead of it.

Key:
HsHexB = conditions: read-out: Ki against HsHexB, cited from earlier work
hOGA = conditions: read-out: Ki against hOGA, cited from earlier work
[1] = target: T1, human β-N-acetylhexosaminidase B (HsHexB) (Homo sapiens, UniProt P07686); assay: Enzyme inhibitory activity test against HsHexB (4-MU-GlcNAc substrate, end-point fluorescence; Dixon plots for Ki); format: biochemical; conditions: pH 4.5
T1 construct: made in house; host or cells: Pichia pastoris
T1 sequence (P07686 122-556): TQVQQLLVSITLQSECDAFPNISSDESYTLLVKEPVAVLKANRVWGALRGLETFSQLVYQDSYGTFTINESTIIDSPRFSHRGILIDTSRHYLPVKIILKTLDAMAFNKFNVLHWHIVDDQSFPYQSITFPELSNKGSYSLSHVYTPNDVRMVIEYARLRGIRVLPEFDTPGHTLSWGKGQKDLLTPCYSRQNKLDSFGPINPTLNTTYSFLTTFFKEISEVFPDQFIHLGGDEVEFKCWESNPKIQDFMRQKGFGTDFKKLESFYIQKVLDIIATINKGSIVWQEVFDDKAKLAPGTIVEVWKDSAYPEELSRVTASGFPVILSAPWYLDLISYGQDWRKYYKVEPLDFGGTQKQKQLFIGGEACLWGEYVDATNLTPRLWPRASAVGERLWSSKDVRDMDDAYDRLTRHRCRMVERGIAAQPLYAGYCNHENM
Method: (§1) Human O-GlcNAcase (hOGA) was expressed in Escherichia coli BL21(DE3) and purified according to previous methods (Kong et al., [2016]). Human β-N-acetylhexosaminidase B (HsHexB) was overexpressed in Pichia pastoris and then purified as described previously (Shen et al., [2018a]).
(§2) All target compounds were evaluated for their inhibitory activities against hOGA and HsHexB in end-point experiments. 4-Methylumbelliferyl N-acetyl-β-D-glucosaminide (4-MU-GlcNAc) was used as substrate. In a final assay volume of 100 μL, inhibitor and substrate (40 μM) were mixed with Britton-Robinson buffer (hOGA, pH 6.5; HsHexB, pH 4.5) and enzyme; then, the assay components were incubated at 30°C for 30 min. Subsequently, the enzymatic reaction was terminated by the addition of 100 μL 0.5 M Na2CO3 solution. The fluorescence of the liberated 4-methylumbelliferone (Mu) was quantified at an excitation of 366 nm and emission of 445 nm on a Varioskan Flash microplate reader (Thermo Fisher Scientific, USA). To determine the inhibition constant (Ki), Dixon plots were performed by changing the concentration of the 4-MU-GlcNAc (40, 20, and 10 μM).

human O-GlcNAcase (hOGA) = target: T2, human O-GlcNAcase (hOGA) (Homo sapiens, UniProt O60502); assay: Enzyme inhibitory activity test against hOGA (4-MU-GlcNAc substrate, end-point fluorescence; Dixon plots for Ki); format: biochemical; conditions: pH 6.5
T2 construct: made in house; host or cells: Escherichia coli BL21(DE3)
T2 sequence (O60502 1-916): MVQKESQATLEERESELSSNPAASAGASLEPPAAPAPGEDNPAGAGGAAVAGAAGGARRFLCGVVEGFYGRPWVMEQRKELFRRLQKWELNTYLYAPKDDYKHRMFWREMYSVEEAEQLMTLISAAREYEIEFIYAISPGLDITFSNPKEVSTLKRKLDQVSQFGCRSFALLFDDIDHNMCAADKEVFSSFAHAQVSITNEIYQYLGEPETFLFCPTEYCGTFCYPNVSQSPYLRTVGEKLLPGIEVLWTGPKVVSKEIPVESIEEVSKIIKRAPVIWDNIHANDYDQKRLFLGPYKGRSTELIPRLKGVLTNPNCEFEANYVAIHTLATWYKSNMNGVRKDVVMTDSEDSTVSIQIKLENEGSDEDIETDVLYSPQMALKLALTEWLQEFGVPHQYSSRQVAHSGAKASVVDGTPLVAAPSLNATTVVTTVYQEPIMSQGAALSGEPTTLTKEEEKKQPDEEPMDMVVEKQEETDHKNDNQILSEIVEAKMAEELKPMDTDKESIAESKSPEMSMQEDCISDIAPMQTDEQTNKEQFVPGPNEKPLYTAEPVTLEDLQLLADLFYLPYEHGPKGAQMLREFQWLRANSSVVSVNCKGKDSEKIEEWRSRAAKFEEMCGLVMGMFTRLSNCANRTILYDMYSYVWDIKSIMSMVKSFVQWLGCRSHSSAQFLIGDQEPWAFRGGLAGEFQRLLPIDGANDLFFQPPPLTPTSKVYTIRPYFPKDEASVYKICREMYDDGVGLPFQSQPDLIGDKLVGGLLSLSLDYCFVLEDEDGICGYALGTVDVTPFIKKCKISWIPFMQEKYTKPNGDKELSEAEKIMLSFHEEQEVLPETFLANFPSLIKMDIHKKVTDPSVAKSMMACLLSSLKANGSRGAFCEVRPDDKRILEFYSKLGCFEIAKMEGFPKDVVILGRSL
Method: as §1, §2

HsHex = conditions: read-out: Ki against HsHex, cited from earlier work
[2] = lead compounds 15b (1) and 5c (2) of previous research, ref Chen et al., 2018, Shen et al., 2018a
[3] = Dixon plots, 4-MU-GlcNAc 40, 20, 10 μM
[4] = 13r (3) of previous research, ref Shen et al., 2018b
[5] = GlcNAcstatin C, ref Dorfmueller et al., 2009
[6] = Gluco-nagstatin, ref Terinek and Vasella, 2005

SMILES: CC(=O)OC[C@H]1O[C@@H](SCC(=O)NCCCN2C(=O)c3cccc4c(N5CCCCC5)ccc(c34)C2=O)[C@@](O)(NC(=O)c2ccc(F)cc2)[C@@H](OC(C)=O)[C@@H]1OC(C)=O [Compound 1]
- Ki (HsHexB; [2]): 30.4 µM
- Ki (hOGA; [2]): 3.8 µM

- inhibition at 100 µM ([1]; 100 μM inhibitor, 40 μM 4-MU-GlcNAc, 30°C, 30 min, read-out: Inhibition rate at 100 μM (%) HsHexB): 45.5 ± 0.5%
- Ki [1, 3]: > 100 µM
- inhibition at 100 µM (human O-GlcNAcase (hOGA); 100 μM inhibitor, 40 μM 4-MU-GlcNAc, 30°C, 30 min, read-out: Inhibition rate at 100 μM (%) hOGA): 97.6 ± 0.9%
- Ki (human O-GlcNAcase (hOGA); [3]): 3.46 ± 0.11 µM
SMILES: CC(=O)N[C@@H]1[C@@H](O)[C@H](O)[C@@H](CO)O[C@H]1SCC(=O)NCCCN1C(=O)c2cccc3cccc(c23)C1=O [Compound 2, reference compound]
- Ki (HsHexB; [2]): > 100 µM
- Ki (hOGA; [2]): 3.46 µM

SMILES: CC(=O)N[C@@H]1[C@@H](O)[C@H](O)[C@@H](CO)O[C@H]1SCCNCCCN1C(=O)c2cccc3c(N4CCCCC4)ccc(c23)C1=O [Compound 3]
- Ki (HsHexB; [4]): > 100 µM
- Ki (hOGA; [4]): 0.6 µM

SMILES: CC(C)C(=O)N[C@H]1c2nc(CCc3ccccc3)cn2[C@H](CO)[C@@H](O)[C@@H]1O [GlcNAcstatin C]
- Ki (HsHex; [5]): 0.55 µM
- Ki (hOGA; [5]): 0.0044 µM

SMILES: CC(=O)N[C@H]1c2nc(CC(=O)O)cn2[C@H](CO)[C@@H](O)[C@@H]1O [Gluco-nagstatin]
- Ki (HsHex; [6]): 0.01 µM
- Ki (hOGA; [6]): 0.42 µM

SMILES: CCNC1=N[C@@H]2[C@@H](O)[C@H](O)[C@@H](CO)O[C@@H]2S1 [Thiamet-G]
- Ki (HsHex; Thiamet-G, ref Yuzwa et al., 2008): 750 µM
